Patent US20230348376A1 (TEIJIN PHARMA LIMITED, priority 2020, published 2023)

What was measured:
human VDR = target: T1, human VDR (Homo sapiens, UniProt P11473); assay: Evaluation of VDR transcription activity in human osteoblasts (HOS cells), luciferase reporter; details: Activity (EC50, VDR transcription activity), HOS cells transfected with human VDR, human RXRα and DR3 luciferase reporter; 21 hours
T1 sequence (P11473 1-427): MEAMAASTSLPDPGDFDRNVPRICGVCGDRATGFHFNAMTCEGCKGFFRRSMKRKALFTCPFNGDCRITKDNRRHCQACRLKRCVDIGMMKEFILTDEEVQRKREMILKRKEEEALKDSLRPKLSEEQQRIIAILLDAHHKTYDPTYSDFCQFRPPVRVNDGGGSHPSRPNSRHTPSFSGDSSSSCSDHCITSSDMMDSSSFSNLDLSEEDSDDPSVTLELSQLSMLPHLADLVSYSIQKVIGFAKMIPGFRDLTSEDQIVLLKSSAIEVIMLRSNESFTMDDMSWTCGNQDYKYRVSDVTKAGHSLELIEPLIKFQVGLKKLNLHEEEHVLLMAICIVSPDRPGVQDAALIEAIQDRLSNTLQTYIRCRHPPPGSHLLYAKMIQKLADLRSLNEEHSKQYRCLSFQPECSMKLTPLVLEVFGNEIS
T1 sequence (P19793 1-462 partner): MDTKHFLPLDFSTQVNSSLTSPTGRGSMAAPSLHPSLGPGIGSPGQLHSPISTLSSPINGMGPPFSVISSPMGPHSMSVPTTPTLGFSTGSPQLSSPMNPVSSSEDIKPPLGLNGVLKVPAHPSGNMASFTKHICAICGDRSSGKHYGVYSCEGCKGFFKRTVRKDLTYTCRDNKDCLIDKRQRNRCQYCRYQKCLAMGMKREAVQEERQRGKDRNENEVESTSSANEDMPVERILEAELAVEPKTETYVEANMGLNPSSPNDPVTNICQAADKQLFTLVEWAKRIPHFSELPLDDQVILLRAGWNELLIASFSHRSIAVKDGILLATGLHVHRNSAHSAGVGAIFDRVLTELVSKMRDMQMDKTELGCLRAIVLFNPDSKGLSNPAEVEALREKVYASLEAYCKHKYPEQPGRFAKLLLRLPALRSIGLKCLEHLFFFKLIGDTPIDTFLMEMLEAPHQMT

[1] = system: rat oligodendrocyte progenitor cells; assay: Promotive activity of rat oligodendrocyte progenitor cell differentiation-1 (MBP gene expression, mRNA); format: cell-based; details: Rattus norvegicus, Oligodendrocyte progenitor cell, 96 h, read-out: promotive activity at T3 base (MBP gene expression; DMSO 0%, T3 100%), 4 days, MBP/β actin mRNA
Procedure: Regarding vitamin D derivatives, which was confirmed to act on the vitamin D receptor (VDR) in Example 352, the promotive activity of oligodendrocyte progenitor cell (OPC) differentiation was evaluated by MBP gene expression (mRNA).
A forebrain obtained from SD rat (Charles River Japan, 1 day old) was crushed with 70 μm Cell Strainer (Falcon #352350), and a cell suspension was prepared by collecting the cells in oligodendrocyte progenitor cell separation medium (20% FBS/2 mM Glutamax (Gibco #35050-061)/i mM sodium pyruvate (Gibco #11360-070)/1% penicillin-streptomycin (Invitrogen #15140-122)/DMEM (Gibco #11960-044)). The cell suspension was seeded in a poly-D-lysine coated T75 flask (Thermo Fisher Scientific #132704) and cultured for about 2 weeks. After culturing, the flask was shaken using a rotary shaker ([…] #WB-101SRC) for about 1 hour (37° C., 100 rpm), and the supernatant was discarded to remove microglia. Subsequently, oligodendrocyte progenitor cell separation medium was added to the flask, and the mixture was similarly shaken for about 22 hours (37° C., 200 rpm), and the supernatant was collected to prepare oligodendrocyte progenitor cells.
The oligodendrocyte progenitor cell prepared was suspended in a differentiation medium (2% B27 (Thermo Fisher Scientific, Inc. #17504-044)/1% penicillin-streptomycin (Invitrogen Corporation #15140-122)/10 ng/mL CNTF (PeproTech Inc. #AF-450-13)/DMEM (Gibco #11960-044)), and seeded on a 96-well plate coated with poly-L-ornithine (FUJIFILM Wako Pure Chemical Corporation #163-27421) under the condition of 0.65×10^4 cells/well, and on a 384-well plate under the condition of 2×10^3 cells/well using an automatic dispensing system (LABCYTE #Echo555). […] After culturing, the cells seeded on the 96-well plate were subjected to immunostaining against MBP using following methods: fixation (4% paraformaldehyde solution, 30 minutes, room temperature), PBS washing, membrane permeation treatment (0.1% Trion X-100 (SIGMA #X100-100ML)/PBS, 3 minutes, room temperature), blocking (3% BSA (SIGMA #A9647-10G)/PBS, 1 hour, room temperature), primary antibody reaction (MBP antibody (abcam plc #ab40390), 2.5 μg/mL, 4° C., 24 hours), PBS washing, secondary antibody reaction (Alexa488 anti-rabbit IgG (Thermo Fisher Scientific, Inc. #A-11034), 5 μg/mL, room temperature, 1 hour), PBS washing, and nuclear staining (Hoechst33342 (DOJINDO #NU043), 10 μg/mL, room temperature, 5 minutes). Subsequently, images of each well were acquired using a fluorescence microscope (KEYENCE CORPORATION #BZ-X800), the number of MBP-positive cells and Hoechst 33342-positive cells were measured using an image analysis application (KEYENCE CORPORATION #BZ-X800 Analyzer), and then the ratio (the number of MBP-positive cells/the number of Hoechst33342-positive cells) was calculated. The cells seeded on the 384-well plate were subjected to real-time PCR using Cells-to-CT 1-Step TaqMan Kit (Thermo Fisher Scientific, Inc. #A25602) and QuantStudio 12K Flex Real-Time PCR System (Thermo Fisher Scientific, Inc. #4472380). The experiment was performed in accordance with the protocol attached to the kit. MBP (Thermo Fisher Scientific, Inc. #Assay ID Rn00690616_ml) and β actin (Thermo Fisher Scientific, Inc. #Assay ID Rn00667869_ml) were used as primers, and the expression levels of each were measured and the ratio (MBP/β actin) was calculated.

Row | SMILES | EC50 (human VDR) [nM] | activation at 1 µM [1] [%]
1 | C=C1[C@H](O)CC(=C/C=C2\CCC[C@]3(C)[C@@H]([C@H](C)CN4CC(CC(F)F)C4)CC[C@@H]23)C[C@H]1O [Compound A019, (1R,3R)-5-(2-((1R,3aS,7aR,E)-1-((S)-1-(3-(2,2-difluoroethyl)azetidin-1-yl)propan-2-yl)-7a-methyloctahydro-4H-inden-4-ylidene)ethylidene)-2-methylenecyclohexane-1,3-diol] | 10 to 100 | ≥ 20
2 | C=C1[C@H](O)CC(=C/C=C2\CCC[C@]3(C)[C@@H]([C@H](C)CN4CC[C@H](C)C4)CC[C@@H]23)C[C@H]1O [Compound B002, (1R,3R)-5-(2-((1R,3aS,7aR,E)-7a-methyl-1-((S)-1-((S)-3-methylpyrrolidin-1-yl)propan-2-yl)octahydro-4H-inden-4-ylidene)ethylidene)-2-methylenecyclohexane-1,3-diol] | 10 to 100 | ≥ 20
3 | C[C@@H]1CCN(C[C@@H](C)[C@H]2CC[C@H]3/C(=C/C=C4C[C@@H](O)C[C@H](O)C4)CCC[C@]23C)C1 [Compound B004, (1R,3R)-5-(2-((1R,3aS,7aR,E)-7a-methyl-1-((S)-1-((R)-3-methylpyrrolidin-1-yl)propan-2-yl)octahydro-4H-inden-4-ylidene)ethylidene)cyclohexane-1,3-diol] | 1 to 10 | ≥ 20
4 | C=C1/C(=C\C=C2/CCC[C@]3(C)[C@@H]([C@H](C)CN4CC[C@H](OC(F)F)C4)CC[C@@H]23)C[C@@H](O)C[C@@H]1O [Compound B047, (1R,3S,Z)-5-(2-((1R,3aS,7aR,E)-1-((S)-1-((S)-3-(difluoromethoxy)pyrrolidin-1-yl)propan-2-yl)-7a-methyloctahydro-4H-inden-4-ylidene)ethylidene)-4-methylenecyclohexane-1,3-diol] | 10 to 100 | ≥ 20
5 | C=C1/C(=C\C=C2/CCC[C@]3(C)[C@@H]([C@H](C)CN4CC[C@@H](OC(F)F)C4)CC[C@@H]23)C[C@@H](O)C[C@@H]1O [Compound B048, (1R,3S,Z)-5-(2-((1R,3aS,7aR,E)-1-((S)-1-((R)-3-(difluoromethoxy)pyrrolidin-1-yl)propan-2-yl)-7a-methyloctahydro-4H-inden-4-ylidene)ethylidene)-4-methylenecyclohexane-1,3-diol] | 10 to 100 | ≥ 20
6 | C=C1/C(=C\C=C2/CCC[C@]3(C)[C@@H]([C@H](C)CN4CC[C@H](CCC(F)F)C4)CC[C@@H]23)C[C@@H](O)C[C@@H]1O [Compound B059, (1R,3S,Z)-5-(2-((1R,3aS,7aR,E)-1-((S)-1-((S)-3-(3,3-difluoropropyl)pyrrolidin-1-yl)propan-2-yl)-7a-methyloctahydro-4H-inden-4-ylidene)ethylidene)-4-methylenecyclohexane-1,3-diol] | 100 to 1000 | ≥ 20
7 | C=C1[C@H](O)CC(=C/C=C2\CCC[C@]3(C)[C@@H]([C@H](C)CN4CC[C@H](CCC(F)F)C4)CC[C@@H]23)C[C@H]1O [Compound B061, (1R,3R)-5-(2-((1R,3aS,7aR,E)-1-((S)-1-((S)-3-(3,3-difluoropropyl)pyrrolidin-1-yl)propan-2-yl)-7a-methyloctahydro-4H-inden-4-ylidene)ethylidene)-2-methylenecyclohexane-1,3-diol] | 1 to 10 | ≥ 20
8 | C=C1[C@H](O)CC(=C/C=C2\CCC[C@]3(C)[C@@H]([C@H](C)CN4CC[C@@H](CCC(F)F)C4)CC[C@@H]23)C[C@H]1O [Compound B062, (1R,3R)-5-(2-((1R,3aS,7aR,E)-1-((S)-1-((R)-3-(3,3-difluoropropyl)pyrrolidin-1-yl)propan-2-yl)-7a-methyloctahydro-4H-inden-4-ylidene)ethylidene)-2-methylenecyclohexane-1,3-diol] | 10 to 100 | ≥ 20
9 | C[C@H](CCN1CC[C@H](CC(F)F)C1)[C@H]1CC[C@H]2/C(=C/C=C3C[C@@H](O)C[C@H](O)C3)CCC[C@]12C [Compound B082, (1R,3R)-5-(2-((1R,3aS,7aR,E)-1-((R)-4-((R)-3-(2,2-difluoroethyl)pyrrolidin-1-yl)butan-2-yl)-7a-methyloctahydro-4H-inden-4-ylidene)ethylidene)cyclohexane-1,3-diol] | 10 to 100 | ≥ 20
10 | C=C1/C(=C\C=C2/CCC[C@]3(C)[C@@H]([C@H](C)CN4CCC[C@H](C(C)(F)F)C4)CC[C@@H]23)C[C@@H](O)C[C@@H]1O [Compound C052, (1R,3S,Z)-5-(2-((1R,3aS,7aR,E)-1-((S)-1-((S)-3-(1,1-difluoroethyl)piperidin-1-yl)propan-2-yl)-7a-methyloctahydro-4H-inden-4-ylidene)ethylidene)-4-methylenecyclohexane-1,3-diol] | 10 to 100 | ≥ 20
11 | C=C1/C(=C\C=C2/CCC[C@]3(C)[C@@H]([C@H](C)CN4CCC[C@H](C(C)(F)F)C4)CC[C@@H]23)C[C@@H](O)[C@H](C)[C@@H]1O [Compound C054, (1R,2S,3S,Z)-5-(2-((1R,3aS,7aR,E)-1-((S)-1-((S)-3-(1,1-difluoroethyl)piperidin-1-yl)propan-2-yl)-7a-methyloctahydro-4H-inden-4-ylidene)ethylidene)-2-methyl-4-methylenecyclohexane-1,3-diol] | 10 to 100 | ≥ 20
12 | C=C1/C(=C\C=C2/CCC[C@]3(C)[C@@H]([C@@H](C)CN4CCOCC4)CC[C@@H]23)C[C@@H](O)[C@H](C)[C@@H]1O [Compound D003, (1R,2S,3S,Z)-2-methyl-5-(2-((1R,3aS,7aR,E)-7a-methyl-1-((R)-1-morpholinopropan-2-yl)octahydro-4H-inden-4-ylidene)ethylidene)-4-methylenecyclohexane-1,3-diol] | 10 to 100 | ≥ 20
13 | C=C1[C@H](O)CC(=C/C=C2\CCC[C@]3(C)[C@@H]([C@H](C)CN4CCO[C@H](C(F)F)C4)CC[C@@H]23)C[C@H]1O [Compound D007, (1R,3R)-5-(2-((1R,3aS,7aR,E)-1-((S)-1-((S)-2-(difluoromethyl)morpholino)propan-2-yl)-7a-methyloctahydro-4H-inden-4-ylidene)ethylidene)-2-methylenecyclohexane-1,3-diol] | 1 to 10 | ≥ 20
